The text below walks through data of patent US7026339B2, “Inhibitors of HCV NS5B polymerase” (priority 2003, dated 2006).

The structures appear in SMILES notation. Some results are limits rather than exact numbers.

The subject of the assay is HuH-7 replicon cells 5–15 and 9–13 (HCV replication). Briefly: Inhibition of viral replication in HuH-7 replicon cells (HCV RNA / GAPDH RNA by multiplex RT-PCR). The class given is cell-based. The conditions noted are these: Hepatitis C virus, 72 h; inhibiting 50% of replication; HuH-7 replicon cells, 3 days; read-out: IC50. As to the method: Compounds were evaluated for inhibition of viral replication according to published procedures (Bartenschlager, R., et. al., Science, 1999, 285, 110) with modifications as follows.
HuH-7 replicon cells 5–15 and 9–13 were cultured in Dulbecco's minimal essential medium (DMEM) containing high glucose and supplemented with 10% fetal bovine serum (FBS), L-glutamine (2 mM), non-essential amino acids (1×), Penicillin (100 IU/mL)/Streptomycin (100 μg/mL) and G418 (Geneticin, 750 μg/mL). Unless otherwise specified, all media components were obtained from Invitrogen. Replicon cell line stocks were maintained as sub-confluent monolayers by passaging every Monday (1:6 split) and Thursday (1:10 split) and incubated at 37° C. with 5% CO2. Tissue culture plates (96-well white clear bottom plates, Corning #3610) were seeded at 7×10^3 cells/well and incubated for 24 hours prior to addition of the compounds.
Compounds in dry powder form were diluted in DMSO (30 mM stock). Serial dilutions of each Compound in DMSO (10 mM–0.1 mM) were performed in a 96-well polypropylene plate using a microtiter format. Culture media (200 μl) was added to the corresponding wells of a sterile 96-well round bottom plate. Diluted compound (2 μl) was added to the corresponding wells of the medial plate (final compound concentrations: 100 μM–1 μM). Culture media was removed from the corresponding wells of the 96-well plate containing the replicon cells and 150 μl diluted compound added. Media containing 1% DMSO and a serially diluted IFN were included on each plate. The cultures were incubated at 37° C. with 5% CO2 for 3 days. Cultures were observed visually for cytotoxicity or compound precipitation prior to RNA extraction described below.
Total cellular RNA was extracted by spin column technology (RNeasy 96, Qiagen) using the vacuum methodology according to the manufacturer's protocol. In brief, culture media was removed and 100 μl RLT lysis buffer containing 0.14M β-mercaptoethanol (β-ME) was added to each well. The plate was kept flat on the laboratory bench and shaken vigorously to lyse the cells. An equal volume of 70% ETOH was mixed with the lysate and added to the corresponding columns of the RNeasy 96-well plate. Vacuum was applied to draw the lysate through the filters. After ventilating the plate, buffer RW1 (1 mL) was drawn through each column. The waste tray was emptied and the filters washed twice with buffer RPE (1 mL/wash). After ventilating the tray, the RNeasy plate was removed and the bottom of the plate struck several times on a stack of paper towels to remove excess wash buffer. The waste tray was removed from the vacuum apparatus and the RNeasy 96-well plate dried by applying vacuum for 10 minutes. Total cellular RNA was eluted from the columns with two washes of 60 μl RNase-free water.
Relative quantitative multiplex RT-PCR was performed using TaqMan (TM) EZ RT Core Reagent kit (Perkin Elmer) according to the manufacturer's protocol (PE Applied Biosystems User Bulletin #2). Primer 061 (NT 61–82) and 139 (NT 139–158) amplifying a short region in the 5′ untranslated region of the HCV genome were utilized at 300 nM final concentrations. Probe #3 (NT 97–119) labeled with FAM reporter dye was utilized at 200 nM final concentration. Pre-developed human GAPDH primers and probe labeled with VIC reporter dye were obtained from PE Applied Biosystems (# 4310884E) and used according to the manufacturer's protocol. TM RT-PCR master mix was prepared containing the above primers/probe for both target RNA. Total cellular RNA (2 μl) was added to the reaction tubes of a 96-well optical plate that corresponded to the wells of the replicon culture plate. The final volume of each reaction was 50 μl. A standard curve was prepared from ten-fold serial dilutions of total cellular RNA extracated from 10^6 replicon cells and eluted in 30 μl RNase-free water. […]

With `O=C(Cc1ccncc1)N/N=C/c1ccccc1OS(=O)(=O)c1ccc(C(F)(F)F)cc1` [Compound 1, 2-{(E)-[2-(2-pyridin-4-ylacetyl)-hydrazono]methyl}phenyl 4-(trifluoromethyl)benzenesulfonate], the IC50 lay within 5 to 50 µM.

Regarding `O=C(CCc1ccccc1)N/N=C/c1ccccc1OS(=O)(=O)c1ccc(C(F)(F)F)cc1` [Compound 2, 2-{(E)-[2-(3-phenylpropanoyl)-hydrazono]methyl}phenyl 4-(trifluoromethyl)benzenesulfonate], the IC50 is below 5 µM. Then `O=C(Cc1c[nH]c2ccccc12)N/N=C/c1ccccc1OS(=O)(=O)c1ccc(C(F)(F)F)cc1` [Compound 3, 2-((E)-{2-[2-(1H-indol-3-yl)-acetyl]hydrazono}methyl)phenyl 4-(trifluoromethyl)benzene-sulfonate], with below 5 µM; and `O=C(Cc1cccs1)N/N=C/c1ccccc1OS(=O)(=O)c1ccc(C(F)(F)F)cc1` [Compound 4, 2-{(E)-[2-(2-thien-2-ylacetyl)-hydrazono]methyl}phenyl 4-(trifluoromethyl)benzenesulfonate], with below 5 µM. For `O=C(Cc1c[nH]cn1)N/N=C/c1ccccc1OS(=O)(=O)c1ccc(C(F)(F)F)cc1` [Compound 5, 2-((E)-{2-[2-(1H-imidazol-4-yl)acetyl]hydrazono}methyl)phenyl 4-(trifluoromethyl)benzenesulfonate] the value was below 5 µM. For `O=C(Cc1cccnc1)N/N=C/c1ccccc1OS(=O)(=O)c1ccc(C(F)(F)F)cc1` [Compound 6, 2-{(E)-[2-(2-pyridin-3-ylacetyl)hydrazono]methyl}phenyl 4-(trifluoromethyl)benzenesulfonate] the value was below 5 µM. For `O=C(Cc1ccc(Cl)cc1)N/N=C/c1ccccc1OS(=O)(=O)c1ccc(C(F)(F)F)cc1` [Compound 7, 2-((E)-{2-[2-(4-chlorophenyl)acetyl]hydrazono}methyl)-phenyl 4-(trifluoromethyl)benzenesulfonate], the IC50 is below 5 µM. For `O=C(Cc1ccc(F)cc1)N/N=C/c1ccccc1OS(=O)(=O)c1ccc(C(F)(F)F)cc1` [Compound 8, 2-((E)-{2-[2-(4-fluorophenyl)acetyl]hydrazono}methyl)-phenyl 4-(trifluoromethyl)benzenesulfonate] the value was below 5 µM; for `O=C(Cc1ccc(F)c(Cl)c1)N/N=C/c1ccccc1OS(=O)(=O)c1ccc(C(F)(F)F)cc1` [Compound 9, 2-((E)-{2-[2-(3-chloro-4-fluorophenyl)acetyl]hydrazono}methyl)-phenyl 4-(trifluoromethyl)benzenesulfonate], below 5 µM. Then `O=C(Cc1ccc(F)cc1Cl)N/N=C/c1ccccc1OS(=O)(=O)c1ccc(C(F)(F)F)cc1` [Compound 10, 2-((E)-{2-[2-(2-chloro-4-fluorophenyl)acetyl]hydrazono}methyl)-phenyl 4-(trifluoromethyl)benzenesulfonate], with below 5 µM; and `CN(C)c1ccc(CC(=O)N/N=C/c2ccccc2OS(=O)(=O)c2ccc(C(F)(F)F)cc2)cc1` [Compound 11, 2-[(E)-(2-{2-[4-(dimethylamino)phenyl]acetyl}hydrazono)-methyl]phenyl 4-(trifluoromethyl)benzenesulfonate], with below 5 µM.

As to `O=C(Cc1c(F)c(F)c(F)c(F)c1F)N/N=C/c1ccccc1OS(=O)(=O)c1ccc(C(F)(F)F)cc1` [Compound 12, 2-((E)-{2-[2-(pentafluorophenyl)acetyl]hydrazono}-methyl)phenyl 4-(trifluoromethyl)benzenesulfonate], the IC50 is above 50 µM. For `O=C(Cc1ccc(F)c(C(F)(F)F)c1)N/N=C/c1ccccc1OS(=O)(=O)c1ccc(C(F)(F)F)cc1` [Compound 13, 2-[(E)-(2-{2-[4-fluoro-3-(trifluoromethyl)phenyl]acetyl}hydrazono)-methyl]phenyl 4-(trifluoromethyl)benzenesulfonate] the value was below 5 µM; for `O=C(Cc1ccc(C(F)(F)F)c(F)c1)N/N=C/c1ccccc1OS(=O)(=O)c1ccc(C(F)(F)F)cc1` [Compound 14, 2-[(E)-(2-{2-[3-fluoro-4-(trifluoromethyl)phenyl]acetyl}hydrazono)-methyl]phenyl 4-(trifluoromethyl)benzenesulfonate], below 5 µM. Then `COc1ccc(CC(=O)N/N=C/c2ccccc2OS(=O)(=O)c2ccc(C(F)(F)F)cc2)c(OC)c1OC` [Compound 15, 2-((E)-{2-[2-(2,3,4-trimethoxyphenyl)acetyl]hydrazono}-methyl)phenyl 4-(trifluoromethyl)-benzenesulfonate], with below 5 µM; and `O=C(Cc1ccc(F)c(F)c1F)N/N=C/c1ccccc1OS(=O)(=O)c1ccc(C(F)(F)F)cc1` [Compound 16, 2-((E)-{2-[2-(2,3,4-trifluorophenyl)acetyl]hydrazono}methyl)-phenyl 4-(trifluoromethyl)benzenesulfonate], with below 5 µM.

`O=C(Cc1cc(F)c(F)cc1F)N/N=C/c1ccccc1OS(=O)(=O)c1ccc(C(F)(F)F)cc1` [Compound 17, 2-((E)-{2-[2-(2,4,5-trifluorophenyl)acetyl]hydrazono}methyl)-phenyl 4-(trifluoromethyl)benzenesulfonate]: the IC50 was below 5 µM. Then `O=C(Cc1cc(F)c(F)c(F)c1)N/N=C/c1ccccc1OS(=O)(=O)c1ccc(C(F)(F)F)cc1` [Compound 18, 2-((E)-{2-[2-(3,4,5-trifluorophenyl)acetyl]hydrazono}methyl)-phenyl 4-(trifluoromethyl)benzenesulfonate], with below 5 µM; and `O=C(Cc1ccc(SC(F)(F)F)cc1)N/N=C/c1ccccc1OS(=O)(=O)c1ccc(C(F)(F)F)cc1` [Compound 19, 2-{(E)-[2-(2-{4-[(trifluoromethyl)thio]phenyl}acetyl)hydra-zono]methyl}phenyl 4-(trifluoromethyl)benzenesulfonate], with 5 to 50 µM.

Regarding `O=C(Cc1cc(F)cc(F)c1F)N/N=C/c1ccccc1OS(=O)(=O)c1ccc(C(F)(F)F)cc1` [Compound 20, 2-((E)-{2-[2-(2,3,5-trifluorophenyl)acetyl]hydrazono}methyl)-phenyl 4-(trifluoromethyl)benzenesulfonate], the IC50 was below 5 µM. In the case of `O=C(Cc1cccc(OC(F)(F)F)c1)N/N=C/c1ccccc1OS(=O)(=O)c1ccc(C(F)(F)F)cc1` [Compound 21, 2-[(E)-(2-{2-[3-(trifluoromethoxy)phenyl]acetyl}hydrazono)-methyl]phenyl 4-(trifluoromethyl)benzenesulfonate], the IC50 is below 5 µM. Then `O=C(Cc1c(Cl)ccc(Cl)c1Cl)N/N=C/c1ccccc1OS(=O)(=O)c1ccc(C(F)(F)F)cc1` [Compound 22, 2-((E)-{2-[2-(2,3,6-trichlorophenyl)acetyl]hydrazono}methyl)-phenyl 4-(trifluoromethyl)benzenesulfonate], with above 50 µM; and `O=C(Cc1cc(F)cc(C(F)(F)F)c1)N/N=C/c1ccccc1OS(=O)(=O)c1ccc(C(F)(F)F)cc1` [Compound 23, 2-[(E)-(2-{2-[3-fluoro-5-(trifluoromethyl)phenyl]acetyl}hydrazono)-methyl]phenyl 4-(trifluoromethyl)benzenesulfonate], with below 5 µM; and `COc1cccc(CC(=O)N/N=C/c2ccccc2OS(=O)(=O)c2ccc(C(F)(F)F)cc2)c1OC` [Compound 24, 2-((E)-{2-[2-(2,3-dimethoxyphenyl)acetyl]hydrazono}methyl)-phenyl 4-(trifluoromethyl)benzenesulfonate], with below 5 µM.

Take `O=C(Cc1ccccc1SC(F)(F)F)N/N=C/c1ccccc1OS(=O)(=O)c1ccc(C(F)(F)F)cc1` [Compound 25, 2-{(E)-[2-(2-{2-[(trifluoromethyl)thio]-phenyl}acetyl)hydrazono]methyl}phenyl 4-(trifluoromethyl)benzenesulfonate]: the IC50 was below 5 µM.
